Consider eleven compounds from patent US9624247B2, “Pyrazolo-pyrrolidin-4-one derivatives as bet inhibitors and their use in the treatment of disease” (NOVARTIS AG, priority 2013, dated 2017).

In this experiment the test system is MV-4-11 cells. Put plainly: Cell growth inhibition assay (CellTiter-Glo), MV-4-11. The class given is cell-based, human. The following applies: MV-4-11, 4 days; for GI50: Homo sapiens, MV4-11, 96 h, half-maximal growth inhibition; for MV-4-11 TGI: total growth inhibition. Summed up:
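Leukemia cells were exposed for 4 days at 37 °C to 3-fold dilution series from 10 μM (0.1% DMSO), then viable cells were quantified by CellTiter-Glo ATP luminescence. Signal was corrected for background and a day-0 plate, with vehicle set at 100% and medium-only at −100%. IC50 and TGI were obtained by four-parameter fit.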

As for `Cc1cc(N2C(=O)c3c(C4CC4)nn(C)c3C2c2ccc(Cl)cc2)cn2c(C(F)F)nnc12` (racemic) [Example 3, 6-(4-chlorophenyl)-3-cyclopropyl-5-(3-(difluoromethyl)-8-methyl-[1,2,4]triazolo[4,3-a]pyridin-6-yl)-1-methyl-5,6-dihydropyrrolo[3,4-c]pyrazol-4(1H)-one], the 50% growth inhibitory concentration (GI50) (usually the concentration that inhibits growth by half) was determined as 9.49 nM and the “MV-4-11 TGI” value worked out at 23.45 nM.

Take `COCCn1nc(C2CC2)c2c1C(c1ccc(Cl)cc1)N(c1cc(C)c3nnc(C)n3c1)C2=O` (racemic) [Example 4, 6-(4-chlorophenyl)-3-cyclopropyl-5-(3,8-dimethyl-[1,2,4]triazolo[4,3-a]pyridin-6-yl)-1-(2-methoxyethyl)-5,6-dihydropyrrolo[3,4-c]pyrazol-4(1H)-one]: the GI50 stood at 9.36 nM and the “MV-4-11 TGI” value was found to be 20.8 nM.

For the compound `COc1cc(N2C(=O)c3c(C4CC4)nn(C)c3C2c2ccc(Cl)cc2)cn2c(C)nnc12` (racemic) [Example 5, 6-(4-chlorophenyl)-3-cyclopropyl-5-(8-methoxy-3-methyl-[1,2,4]triazolo[4,3-a]pyridin-6-yl)-1-methyl-5,6-dihydropyrrolo[3,4-c]pyrazol-4(1H)-one], the GI50 is 64.9 nM and the “MV-4-11 TGI” value worked out at 104 nM.

With `Cc1cc(N2C(=O)c3c(C4CC4)nn(C)c3C2c2ccc(Cl)cc2)cn2c(CF)nnc12` (racemic) [Example 16, 6-(4-chlorophenyl)-3-cyclopropyl-5-(3-(fluoromethyl)-8-methyl-[1,2,4]triazolo[4,3-a]-pyridin-6-yl)-1-methyl-5,6-dihydropyrrolo[3,4-c]pyrazol-4(1H)-one], the GI50 was found to be 6.07 nM and the “MV-4-11 TGI” value turned out to be 11.3 nM.

Consider `Cc1cc(N2C(=O)c3c(C4CC4)nn(C)c3C2c2ccc(Cl)cc2)cn2c(C)nnc12` (stereo not shown) [Example 1, 6-(4-chlorophenyl)-3-cyclopropyl-5-(3,8-dimethyl-[1,2,4]triazolo[4,3-a]pyridin-6-yl)-1-methyl-5,6-dihydropyrrolo[3,4-c]pyrazol-4(1H)-one], for which growth was halved (GI50) at 5.42 nM and the “MV-4-11 TGI” value worked out at 10.7 nM.

Consider `Cc1cc(N2C(=O)c3c(C4CC4)nn(C)c3[C@H]2c2ccc(Cl)cc2)cn2c(C)nnc12` [Example 2, (R)-6-(4-chlorophenyl)-3-cyclopropyl-5-(3,8-dimethyl-[1,2,4]triazolo[4,3-a]pyridin-6-yl)-1-methyl-5,6-dihydropyrrolo[3,4-c]pyrazol-4(1H)-one], for which the 50% growth inhibitory concentration (GI50) is 4.31 nM and the “MV-4-11 TGI” value was 11.21 nM.

For `COc1cc(N2C(=O)c3c(C4CC4)nn(C)c3C2c2ccc(Cl)cc2)cc2c1nnn2C` (stereo not shown) [Example 6], the GI50 stood at 44.5 nM and the “MV-4-11 TGI” value is 90.25 nM.

Turning to `Cc1cc(N2C(=O)c3c(C4CC4)nn(C)c3[C@H]2c2ccc(Cl)cc2)cn2c(C(F)F)nnc12` [Example 7, (R)-6-(4-chlorophenyl)-3-cyclopropyl-5-(3-(difluoromethyl)-8-methyl-[1,2,4]triazolo-[4,3-a]pyridin-6-yl)-1-methyl-5,6-dihydropyrrolo[3,4-c]pyrazol-4(1H)-one], it took 2.45 nM to inhibit growth by half (GI50) and the “MV-4-11 TGI” value was 6.275 nM.

For `COCCn1nc(C2CC2)c2c1C(c1ccc(Cl)cc1)N(c1cc(C)c3nnc(CF)n3c1)C2=O` (stereo not shown) [Example 18, 6-(4-chlorophenyl)-3-cyclopropyl-5-(3-(fluoromethyl)-8-methyl-[1,2,4]triazolo[4,3-a]-pyridin-6-yl)-1-(2-methoxyethyl)-5,6-dihydropyrrolo[3,4-c]pyrazol-4(1H)-one], growth was halved (GI50) at 6.73 nM and the “MV-4-11 TGI” value is 13.25 nM.

In the case of `Cc1nnc2c(NC(=O)OC(C)(C)C)cc(N3C(=O)c4c(C5CC5)nn(C)c4C3c3ccc(Cl)cc3)cn12` (stereo not shown) [Example 27, tert-butyl (6-(6-(4-chlorophenyl)-3-cyclopropyl-1-methyl-4-oxopyrrolo[3,4-c]pyrazol-5(1H,4H,6H)-yl)-3-methyl-[1,2,4]triazolo[4,3-a]pyridin-8-yl)carbamate], it took 11.1 nM to inhibit growth by half (GI50) and the “MV-4-11 TGI” value was 22.6 nM.

For `CCOC(=O)Nc1cc(N2C(=O)c3c(C4CC4)nn(C)c3C2c2ccc(Cl)cc2)cn2c(C)nnc12` (stereo not shown) [Example 29, ethyl (6-(6-(4-chlorophenyl)-3-cyclopropyl-1-methyl-4-oxopyrrolo[3,4-c]pyrazol-5-(1H,4H,6H)-yl)-3-methyl-[1,2,4]triazolo[4,3-a]pyridin-8-yl)carbamate], the GI50 was found to be 1.13 nM and the “MV-4-11 TGI” value worked out at 1.97 nM.
